Assay results taken from patent US9249125B2, “Pyrazole derivatives as p38 MAP inhibitors” (RESPIVERT LIMITED, priority 2012, dated 2016).

Assays:
[1] = test system: LPS-induced TNFα release in d-U937 cells; assay: LPS-induced TNFα release in d-U937 cells; assay type: cell-based; conditions: Homo sapiens, dU937, relative to 10 μg/mL BIRB796, read-out: LPS Induced Release of Cytokine in d-937 Cells TNFα REC50
How it was run: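 Sandwich ELISA of culture supernatant gives TNFα and IL-8 levels after a 4 hr challenge with LPS (0.1 μg/mL, E. coli O111:B4). Before stimulation, macrophage-like U937 cells, obtained by 48–72 hr in PMA at 100 ng/mL, sit with compound for 2 hr. Relative EC50 is derived from concentration-response data.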

[2] = biological target: Syk (Homo sapiens (Human), UniProt P43405); assay: Syk enzyme inhibition (FRET, Z-LYTE); assay type: biochemical
How it was run: (§1)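 Z-LYTE FRET kinase assay: enzyme (3000 or 2000 ng/mL stock, respectively) preincubated 2 h at RT with compound (4–0.004 μg/mL stocks), then FRET peptide plus ATP (800 μM stock for c-Src, 60 μM for Syk) added for 1 h. Protease development 1 h; phosphorylation from coumarin/fluorescein emission ratio.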

[3] = test system: d-U937 cells; assay: Cell viability: MTT assay; assay type: cell-based, human; conditions: 1 μg/mL
How it was run: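 Differentiated U937 cells were exposed to compound at 1 or 10 μg/mL either 4 h in 5% FCS RPMI1640 or 24 h in 10% FCS RPMI1640, then given MTT for 1 h, DMSO-solubilised and read at 550 nm. Percent viability loss versus 0.5% DMSO vehicle; apparent gains appear negative.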

[4] = biological target: p38 MAPKα (Homo sapiens (Human), UniProt Q16539); assay: p38 MAPKα enzyme inhibition (FRET, Z-LYTE); assay type: biochemical
[5] = biological target: cSrc (Homo sapiens (Human), UniProt P12931); assay: c-Src enzyme inhibition (FRET, Z-LYTE); assay type: biochemical
How it was run: as §1

[6] = biological target: GSK3α (Homo sapiens (Human), UniProt P49840); assay: GSK 3α enzyme inhibition (FRET, Z-LYTE); assay type: biochemical
How it was run: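 GSK3α (500 ng/mL stock) was preincubated 2 hr at RT with compound (4 to 0.004 μg/mL stocks), then FRET peptide (8 μM stock) and ATP (40 μM stock) added for 1 hr. Protease development for 1 hr cleaved unphosphorylated peptide; coumarin/fluorescein emission ratio reported phosphorylation.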

[7] = test system: Poly I:C-induced ICAM-1 expression in BEAS2B cells; assay: Poly I:C-induced ICAM-1 expression in BEAS2B cells; assay type: cell-based; conditions: Homo sapiens, BEAS-2B, read-out: Poly IC induced ICAM1 in BEAS2B IC50
How it was run: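 BEAS2B human bronchial epithelial cells pre-incubated with compound for 2 hr, then transfected with 1 μg/mL poly I:C plus Oligofectamine. At 18 hr, surface ICAM-1 measured by cell-based ELISA (HRP, OD450–655). Signal corrected for cell number by crystal violet OD595.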

[8] = test system: LPS-induced IL-8 release in d-U937 cells; assay: LPS-induced IL-8 release in d-U937 cells; assay type: cell-based; conditions: Homo sapiens, dU937, read-out: LPS Induced Release of Cytokine in d-937 Cells IL-8 IC50
How it was run: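 First, U937 monocytes undergo PMA treatment (100 ng/mL) for 48 to 72 hr to become macrophage-type. Next, compound at final concentrations is added for 2 hr, followed by LPS at 0.1 μg/mL for 4 hr. Finally, cytokines in the supernatant are quantified by ELISA against vehicle-treated cells.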

Sequence of p38 MAPKα (Q16539 whole entry): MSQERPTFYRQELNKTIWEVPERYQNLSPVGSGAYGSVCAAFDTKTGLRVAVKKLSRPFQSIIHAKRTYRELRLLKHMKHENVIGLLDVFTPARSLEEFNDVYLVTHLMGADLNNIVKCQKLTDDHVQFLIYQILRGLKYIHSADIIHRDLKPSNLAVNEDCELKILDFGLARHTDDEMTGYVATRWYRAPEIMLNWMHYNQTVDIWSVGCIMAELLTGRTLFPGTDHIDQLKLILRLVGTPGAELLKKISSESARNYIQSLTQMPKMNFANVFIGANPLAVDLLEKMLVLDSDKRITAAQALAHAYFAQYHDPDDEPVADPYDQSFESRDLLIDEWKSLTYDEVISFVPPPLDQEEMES
Sequence of GSK3α (P49840 whole entry): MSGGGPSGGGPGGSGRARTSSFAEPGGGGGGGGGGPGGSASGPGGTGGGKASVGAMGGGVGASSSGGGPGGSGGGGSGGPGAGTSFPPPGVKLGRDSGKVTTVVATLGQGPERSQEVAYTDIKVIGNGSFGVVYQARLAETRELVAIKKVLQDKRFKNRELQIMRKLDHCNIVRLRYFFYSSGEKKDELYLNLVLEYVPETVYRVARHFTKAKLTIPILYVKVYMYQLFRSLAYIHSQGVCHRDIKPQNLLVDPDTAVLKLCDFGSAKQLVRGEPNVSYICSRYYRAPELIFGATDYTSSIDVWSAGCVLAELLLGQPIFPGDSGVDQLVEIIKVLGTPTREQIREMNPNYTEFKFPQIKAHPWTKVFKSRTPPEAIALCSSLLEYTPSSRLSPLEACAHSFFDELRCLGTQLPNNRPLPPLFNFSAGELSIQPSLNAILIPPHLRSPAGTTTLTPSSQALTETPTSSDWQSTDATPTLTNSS
Sequence of cSrc (P12931 whole entry, looked up): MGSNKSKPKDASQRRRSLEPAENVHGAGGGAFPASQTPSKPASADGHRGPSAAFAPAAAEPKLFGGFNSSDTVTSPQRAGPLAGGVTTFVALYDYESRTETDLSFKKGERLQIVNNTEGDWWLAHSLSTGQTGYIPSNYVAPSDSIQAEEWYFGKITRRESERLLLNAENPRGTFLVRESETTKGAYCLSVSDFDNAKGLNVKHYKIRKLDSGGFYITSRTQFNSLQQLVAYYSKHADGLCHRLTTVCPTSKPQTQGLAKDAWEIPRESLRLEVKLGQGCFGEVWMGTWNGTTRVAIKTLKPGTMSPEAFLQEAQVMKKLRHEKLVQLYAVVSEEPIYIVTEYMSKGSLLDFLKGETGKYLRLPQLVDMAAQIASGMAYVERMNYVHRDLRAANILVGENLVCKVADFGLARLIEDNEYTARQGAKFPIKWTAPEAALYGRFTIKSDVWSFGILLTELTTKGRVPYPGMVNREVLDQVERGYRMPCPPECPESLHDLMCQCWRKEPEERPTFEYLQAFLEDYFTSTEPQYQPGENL

Row | Structure (SMILES) | EC50 [1] [nM] | IC50 [2] [nM] | MTT Assay Cell viability at time point in d-U937 cells 4 h [3] | MTT Assay Cell viability at time point in d-U937 cells 24 h [3] | IC50 [4] [nM] | IC50 [5] [nM] | IC50 [6] [nM] | IC50 [7] [nM] | IC50 [8] [nM]
1 | Cc1n[nH]c2ccc(Nc3nccc(Oc4ccc(NC(=O)Nc5cc(C(C)(C)C)nn5-c5ccc(OCCN6CCOCC6)cc5)c5ccccc45)n3)cc12 [Example 72] | 1.6 | 3 | −ve (−ve and +ve indicate that the value is below and above respectively, the no significant effect threshold, defined as 30% inhibition at 1 μg/mL at the time point indicated.) | −ve (−ve and +ve indicate that the value is below and above respectively, the no significant effect threshold, defined as 30% inhibition at 1 μg/mL at the time point indicated.) | 13 | 2 | 2290 | 165 | 1.7
2 | CC(C)(C)c1cc(NC(=O)Nc2ccc(Oc3ccnc(Nc4ccc5c(cnn5CCN5CCOCC5)c4)n3)c3ccccc23)n(-c2ccc(OCCN3CCOCC3)cc2)n1 [Example 74, 1-(3-(tert-butyl)-1-(4-(2-morpholinoethoxy)phenyl)-1H-pyrazol-5-yl)-3-(4-((2-((1-(2-morpholinoethyl)-1H-indazol-5-yl)amino)pyrimidin-4-yl)oxy)naphthalen-1-yl)urea] | 3.6 | 1 | −ve (−ve and +ve indicate that the value is below and above respectively, the no significant effect threshold, defined as 30% inhibition at 1 μg/mL at the time point indicated.) | −ve (−ve and +ve indicate that the value is below and above respectively, the no significant effect threshold, defined as 30% inhibition at 1 μg/mL at the time point indicated.) | 27 | < 1 | 597 | 2.7 | 192
3 | Cc1nc2cc(Nc3nccc(Oc4ccc(NC(=O)Nc5cc(C(C)(C)C)nn5-c5ccc(OCCN6CCOCC6)cc5)c5ccccc45)n3)ccc2[nH]1 [Example 75, 1-(3-(tert-butyl)-1-(4-(2-morpholinoethoxy)phenyl)-1H-pyrazol-5-yl)-3-(4-((2-((2-methyl-1H-benzo[d]imidazol-6-yl)amino)pyrimidin-4-yl)oxy)naphthalen-1-yl)urea] | 14.2 | < 1 | −ve (−ve and +ve indicate that the value is below and above respectively, the no significant effect threshold, defined as 30% inhibition at 1 μg/mL at the time point indicated.) | −ve (−ve and +ve indicate that the value is below and above respectively, the no significant effect threshold, defined as 30% inhibition at 1 μg/mL at the time point indicated.) | 36 | < 1 | 4950 | 16.3 | 43.9
4 | CC(C)(C)c1cc(NC(=O)Nc2ccc(Oc3ccnc(Nc4ccc5oc(=O)[nH]c5c4)n3)c3ccccc23)n(-c2ccc(OCCN3CCOCC3)cc2)n1 [Example 76, 1-(3-(tert-butyl)-1-(4-(2-morpholinoethoxy)phenyl)-1H-pyrazol-5-yl)-3-(4-((2-((2-oxo-2,3-dihydrobenzo[d]oxazol-5-yl)amino)pyrimidin-4-yl)oxy)naphthalen-1-yl)urea] | 12.5 | 34 | −ve (−ve and +ve indicate that the value is below and above respectively, the no significant effect threshold, defined as 30% inhibition at 1 μg/mL at the time point indicated.) | −ve (−ve and +ve indicate that the value is below and above respectively, the no significant effect threshold, defined as 30% inhibition at 1 μg/mL at the time point indicated.) | 48 | 15 | 777 | 2.2 | 0.3
5 | CC(C)(C)c1cc(NC(=O)Nc2ccc(Oc3ccnc(Nc4ccc5[nH]c(=O)oc5c4)n3)c3ccccc23)n(-c2ccc(OCCN3CCOCC3)cc2)n1 [Example 77, 1-(3-(tert-butyl)-1-(4-(2-morpholinoethoxy)phenyl)-1H-pyrazol-5-yl)-3-(4-((2-((2-oxo-2,3-dihydrobenzo[d]oxazol-6-yl)amino)pyrimidin-4-yl)oxy)naphthalen-1-yl)urea] | 3.5 | 93 | −ve (−ve and +ve indicate that the value is below and above respectively, the no significant effect threshold, defined as 30% inhibition at 1 μg/mL at the time point indicated.) | −ve (−ve and +ve indicate that the value is below and above respectively, the no significant effect threshold, defined as 30% inhibition at 1 μg/mL at the time point indicated.) | 417 | 27 | 2290 | 8.6 | 3.1
6 | CC(C)(C)c1cc(NC(=O)Nc2ccc(Oc3ccnc(Nc4ccc5sncc5c4)n3)c3ccccc23)n(-c2ccc(OCCN3CCOCC3)cc2)n1 [Example 78, 1-(4-((2-(benzo[d]isothiazol-5-ylamino)pyrimidin-4-yl)oxy)naphthalen-1-yl)-3-(3-(tert-butyl)-1-(4-(2-morpholinoethoxy)phenyl)-1H-pyrazol-5-yl)urea] | 4.7 | 33 | −ve (−ve and +ve indicate that the value is below and above respectively, the no significant effect threshold, defined as 30% inhibition at 1 μg/mL at the time point indicated.) | −ve (−ve and +ve indicate that the value is below and above respectively, the no significant effect threshold, defined as 30% inhibition at 1 μg/mL at the time point indicated.) | 139 | 8 | 2420 | 7.9 | 7.4
7 | CC(C)(C)c1cc(NC(=O)Nc2ccc(Oc3ccnc(Nc4ccc5scnc5c4)n3)c3ccccc23)n(-c2ccc(OCCN3CCOCC3)cc2)n1 [Example 79, 1-(4-((2-(benzo[d]thiazol-5-ylamino)pyrimidin-4-yl)oxy)naphthalen-1-yl)-3-(3-(tert-butyl)-1-(4-(2-morpholinoethoxy)phenyl)-1H-pyrazol-5-yl)urea] | 10.5 | 36 | −ve (−ve and +ve indicate that the value is below and above respectively, the no significant effect threshold, defined as 30% inhibition at 1 μg/mL at the time point indicated.) | −ve (−ve and +ve indicate that the value is below and above respectively, the no significant effect threshold, defined as 30% inhibition at 1 μg/mL at the time point indicated.) | 149 | 8 | 730 | 7 | 12.4
8 | CC(C)(C)c1cc(NC(=O)Nc2ccc(Oc3ccnc(Nc4ccc5ncsc5c4)n3)c3ccccc23)n(-c2ccc(OCCN3CCOCC3)cc2)n1 [Example 80, 1-(4-((2-(benzo[d]thiazol-6-ylamino)pyrimidin-4-yl)oxy)naphthalen-1-yl)-3-(3-(tert-butyl)-1-(4-(2-morpholinoethoxy)phenyl)-1H-pyrazol-5-yl)urea] | 1.5 | 25 | −ve (−ve and +ve indicate that the value is below and above respectively, the no significant effect threshold, defined as 30% inhibition at 1 μg/mL at the time point indicated.) | −ve (−ve and +ve indicate that the value is below and above respectively, the no significant effect threshold, defined as 30% inhibition at 1 μg/mL at the time point indicated.) | 86 | 9 | 461 | 1.9 | 1.9
